From patent US9102701B2, “17-hydroxy-17-pentafluoroethyl-estra-4,9(10)-diene-11-ethynylphenyl derivatives, methods for the production thereof and use thereof for treating diseases” (Bayer Intellectual Property GmbH, priority 2009, dated 2015)
pIC50: −log10 of the molar value. In brackets after ≈: the same amount, converted by molar mass.

Experiments:
[1] = target: T1, human progesterone receptor A (Homo sapiens, UniProt P06401); assay: Progesterone receptor-antagonistic action in stably transfected SK-N-MC cells, PR-A, MMTV-LUC reporter; type: cell-based; conditions: read-out: IC50 PR-A
T1 construct: expressed in transfected cells; host or cells: SK-N-MC human neuroblastoma cells, stably transfected with pRChPR-A-neo and pMMTV-LUC
T1 sequence (P06401 1-769 isoform P06401-2): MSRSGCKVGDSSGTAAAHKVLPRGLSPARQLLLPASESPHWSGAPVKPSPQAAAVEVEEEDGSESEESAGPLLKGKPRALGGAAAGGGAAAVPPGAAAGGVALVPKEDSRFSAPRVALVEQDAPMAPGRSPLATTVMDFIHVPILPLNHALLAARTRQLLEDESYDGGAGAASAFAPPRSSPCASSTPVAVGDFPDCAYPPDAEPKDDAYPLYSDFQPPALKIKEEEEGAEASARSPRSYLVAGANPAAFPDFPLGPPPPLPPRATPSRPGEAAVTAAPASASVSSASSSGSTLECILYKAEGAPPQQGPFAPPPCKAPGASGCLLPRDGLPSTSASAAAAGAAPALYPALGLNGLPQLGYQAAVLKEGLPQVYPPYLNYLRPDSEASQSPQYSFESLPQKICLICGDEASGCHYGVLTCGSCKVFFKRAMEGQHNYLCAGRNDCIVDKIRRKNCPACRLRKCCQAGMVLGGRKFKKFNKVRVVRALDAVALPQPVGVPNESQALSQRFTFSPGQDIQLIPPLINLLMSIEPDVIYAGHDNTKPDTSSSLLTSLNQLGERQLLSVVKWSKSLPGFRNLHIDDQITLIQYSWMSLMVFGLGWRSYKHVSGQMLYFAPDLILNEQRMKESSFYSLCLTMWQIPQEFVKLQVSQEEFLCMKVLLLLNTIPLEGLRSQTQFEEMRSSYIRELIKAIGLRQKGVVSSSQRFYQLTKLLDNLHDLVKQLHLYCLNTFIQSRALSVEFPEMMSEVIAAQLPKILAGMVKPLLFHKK
Outline: (§1)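 SK-N-MC neuroblastoma cells stably expressing human PR-A or PR-B plus MMTV-LUC reporter, treated 24 h with compound (0.01 nmol/l upward). Antagonism measured against 0.1 nmol/l promegestone; luciferase in lysates as RLU, given as % efficacy and IC50 (agonism as EC50).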

[2] = target: T2, human progesterone receptor B (Homo sapiens, UniProt P06401); assay: Progesterone receptor-antagonistic action in stably transfected SK-N-MC cells, PR-B, MMTV-LUC reporter; type: cell-based; conditions: read-out: IC50 PR-B
T2 construct: expressed in transfected cells; host or cells: SK-N-MC human neuroblastoma cells, stably transfected with pRChPR-B-neo and pMMTV-LUC
T2 sequence (P06401 1-933): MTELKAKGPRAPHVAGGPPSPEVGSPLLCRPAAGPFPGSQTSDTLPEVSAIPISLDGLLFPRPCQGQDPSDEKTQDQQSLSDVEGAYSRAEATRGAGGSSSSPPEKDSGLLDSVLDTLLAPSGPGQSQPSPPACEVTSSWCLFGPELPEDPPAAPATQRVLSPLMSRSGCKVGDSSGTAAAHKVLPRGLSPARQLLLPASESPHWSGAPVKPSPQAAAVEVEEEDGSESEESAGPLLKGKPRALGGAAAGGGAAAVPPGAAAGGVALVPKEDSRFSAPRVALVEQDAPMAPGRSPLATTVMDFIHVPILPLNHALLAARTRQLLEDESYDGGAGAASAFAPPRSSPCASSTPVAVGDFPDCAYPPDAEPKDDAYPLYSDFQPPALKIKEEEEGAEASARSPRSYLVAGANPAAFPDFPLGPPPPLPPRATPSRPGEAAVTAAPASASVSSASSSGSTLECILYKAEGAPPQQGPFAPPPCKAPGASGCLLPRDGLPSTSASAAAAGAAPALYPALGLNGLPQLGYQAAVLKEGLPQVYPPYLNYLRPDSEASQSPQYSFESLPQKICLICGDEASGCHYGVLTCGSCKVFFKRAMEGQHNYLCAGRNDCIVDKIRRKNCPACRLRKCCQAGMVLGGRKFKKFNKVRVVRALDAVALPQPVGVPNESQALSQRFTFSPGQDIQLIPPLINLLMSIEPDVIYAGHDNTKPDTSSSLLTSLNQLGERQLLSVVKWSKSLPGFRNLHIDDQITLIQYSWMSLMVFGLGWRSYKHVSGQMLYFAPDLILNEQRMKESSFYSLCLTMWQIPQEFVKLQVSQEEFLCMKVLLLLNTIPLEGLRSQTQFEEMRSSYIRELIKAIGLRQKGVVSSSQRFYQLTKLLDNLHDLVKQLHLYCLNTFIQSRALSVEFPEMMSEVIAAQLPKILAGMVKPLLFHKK
Outline: as §1

[3] = Metabolic stability in human liver microsomes; type: in vitro ADME; conditions: for Predicted clearance Human: predicted in vivo clearance from liver microsomes, well-stirred model, 1 μM; for Predicted Fmax (maximum oral bioavailability) Human: calculated from liver microsome data
Protocol: Determination of Metabolic Stability in Human and Rat Liver Microsomes
Isolated Human Liver Microsomes (HLM) were Used to Assess the Metabolic Stability of compounds of general formula I.
The incubations were conducted with 2.4 ml of HLM solution (protein content 0.5 mg/ml), 30 μl of the test compound (final concentration 1 μM) and 0.6 ml of the cofactor mixture (═NADPH-generating system composed of 3 IU glucose-6-phosphate dehydrogenase, 14.6 mg glucose-6-phosphate, 1.2 mg NADP) at 37° C. in 100 mM phosphate buffer at pH 7.4. Samples were taken at 6 time points (2-60 min) and precipitated with an equal volume of methanol, and the recovery of the test substances used in the supernatant was determined by LC-MS/MS analysis. The half-life of substance degradation determined therefrom was used to calculate what is called the intrinsic clearance of the substance in the liver microsome preparation.

[4] = Solubility in aqueous medium at pH 7.4; type: physicochemical; conditions: for solubility (in words): aqueous medium under physiological conditions; for solubility: aqueous medium, pH 7.4, aqueous buffer

| SMILES | pIC50 [1] | pIC50 [2] | Predicted clearance Human [3] | solubility (in words) [4] | solubility [4] | Predicted Fmax (maximum oral bioavailability) Human [3] |
| --- | --- | --- | --- | --- | --- | --- |
| C[C@]12C[C@H](c3ccc(C#CC(=O)O)cc3)C3=C4CCC(=O)C=C4CCC3C1CC[C@@]2(O)C(F)(F)C(F)(F)F (stereo partly drawn) [Example 2, [4-((8S,11R,13S,14S,17S)-17-hydroxy-13-methyl-3-oxo-17-pentafluoroethyl-2,3,6,7,8,11,12,13,14,15,16,17-dodecahydro-4H-cyclopenta[a]phenanthren-11-yl)phenyl]propynoic acid] | 7.49 | 7.80 | 0 mL/min/kg | improved solubility | 178 µg/mL (≈ 333 µM) |  |
| C[C@]12C[C@H](c3ccc(C#C/C=C\C#N)cc3)C3=C4CCC(=O)C=C4CCC3C1CC[C@@]2(O)C(F)(F)C(F)(F)F (stereo partly drawn) [Example 5, (Z)-5-[4-((8S,11R,13S,14S,17S)-17-hydroxy-13-methyl-3-oxo-17-pentafluoroethyl-2,3,6,7,8,11,12,13,14,15,16,17-dodecahydro-1H-cyclopenta[a]phenanthren-1′-yl)phenyl]pent-2-en-4-ynenitrile] | 9.14 | 9.12 | 2.83 mL/min/kg |  | 8 µg/mL (≈ 14.8 µM) |  |
| C[C@]12C[C@H](c3ccc(C#CCOCCO)cc3)C3=C4CCC(=O)C=C4CC[C@H]3[C@@H]1CC[C@@]2(O)C(F)(F)C(F)(F)F [Example 11, (8S,11R,13S,14S,17S)-17-hydroxy-11-{4-[3-(2-hydroxyethoxy)prop-1-yn-1-yl]-phenyl}-13-methyl-17-pentafluoroethyl-1,2,6,7,8,11,12,13,14,15,16,17-dodecahydrocyclopenta[a]phenanthren-3-one] | 9.49 | 9.00 | 8.17 mL/min/kg | improved solubility | 30 µg/mL (≈ 53.1 µM) | 63% |
| C[C@]12C[C@H](c3ccc(C#C/C=C/c4cccc(C(=O)O)c4)cc3)C3=C4CCC(=O)C=C4CCC3C1CC[C@@]2(O)C(F)(F)C(F)(F)F (stereo partly drawn) [Example 13A, 3-{(E)-4-[4-((8S,11R,13S,14S,17S)-17-hydroxy-13-methyl-3-oxo-17-pentafluoroethyl-2,3,6,7,8,11,12,13,14,15,16,17-dodecahydro-1H-cyclopenta[a]phenanthren-1′-yl)phenyl]but-1-en-3-ynyl}benzoic acid] | 10.00 | 9.70 | 5.17 mL/min/kg | improved solubility | 148 µg/mL (≈ 232 µM) |  |

Further lines, results first:

| pIC50 [1] | pIC50 [2] | Predicted clearance Human [3] | solubility (in words) [4] | solubility [4] | Predicted Fmax (maximum oral bioavailability) Human [3] | SMILES |
| --- | --- | --- | --- | --- | --- | --- |
| 10.00 | 10.00 | 14.7 mL/min/kg |  | 5 µg/mL (≈ 8.02 µM) | 34% | C[C@]12C[C@H](c3ccc(C#C/C=N/OCc4ccccc4)cc3)C3=C4CCC(=O)C=C4CCC3C1CC[C@@]2(O)C(F)(F)C(F)(F)F (stereo partly drawn) [Example 24A, (E)-[4-((8S,11R,13S,14S,17S)-17-hydroxy-13-methyl-3-oxo-17-pentafluoroethyl-2,3,6,7,8,11,12,13,14,15,16,17-dodecahydro-1H-cyclopenta[a]phenanthren-1′-yl)phenyl]propynal O-benzyl oxime] |
| 11.00 | 10.10 | 11.7 mL/min/kg |  | 5 µg/mL (≈ 8.9 µM) | 47% | CCO/N=C/C#Cc1ccc([C@H]2C[C@@]3(C)[C@@H](CC[C@@]3(O)C(F)(F)C(F)(F)F)[C@@H]3CCC4=CC(=O)CCC4=C32)cc1 [Example 25A, (E)-[4-((8S,11R,13S,14S,17S)-17-hydroxy-13-methyl-3-oxo-17-pentafluoroethyl-2,3,6,7,8,11,12,13,14,15,16,17-dodecahydro-1H-cyclopenta[a]phenanthren-1′-yl)phenyl]propynal O-ethyl oxime] |
| 10.10 | 10.00 | 18.8 mL/min/kg |  | 10 µg/mL (≈ 16.9 µM) | 15% | CCNC(=O)NCC#Cc1ccc([C@H]2C[C@@]3(C)C(CC[C@@]3(O)C(F)(F)C(F)(F)F)C3CCC4=CC(=O)CCC4=C32)cc1 (stereo partly drawn) [Example 31, 1-ethyl-3-{3-[4-((8S,11R,13S,14S,17S)-17-hydroxy-13-methyl-3-oxo-17-pentafluoroethyl-2,3,6,7,8,11,12,13,14,15,16,17-dodecahydro-1H-cyclopenta[a]phenanthren-1′-yl)phenyl]prop-2-ynyl}urea] |
| 10.00 | 10.00 | 20.2 mL/min/kg |  | 7 µg/mL (≈ 11 µM) | 9% | C[C@]12C[C@H](c3ccc(C#CCNC(=O)Nc4ccccc4)cc3)C3=C4CCC(=O)C=C4CC[C@H]3[C@@H]1CC[C@@]2(O)C(F)(F)C(F)(F)F [Example 34, 1-{3-[4-((8S,11R,13S,14S,17S)-17-hydroxy-13-methyl-3-oxo-17-pentafluoroethyl-2,3,6,7,8,11,12,13,14,15,16,17-dodecahydro-1H-cyclopenta[a]phenanthren-11-yl)phenyl]prop-2-ynyl}-3-phenylurea] |
| 10.00 | 9.70 | 10 mL/min/kg |  | 4 µg/mL (≈ 6.09 µM) | 55% | C[C@]12C[C@H](c3ccc(C#CCNC(=O)Nc4ccc(F)cc4)cc3)C3=C4CCC(=O)C=C4CC[C@H]3[C@@H]1CC[C@@]2(O)C(F)(F)C(F)(F)F [Example 36, 1-{3-[4-((8S,11R,13S,14S,17S)-17-hydroxy-13-methyl-3-oxo-17-pentafluoroethyl-2,3,6,7,8,11,12,13,14,15,16,17-dodecahydro-1H-cyclopenta[a]phenanthren-11-yl)phenyl]prop-2-ynyl}-3-(4-fluorophenyl)urea] |
| 9.15 | 8.92 |  |  |  |  | CC(C)(C)c1ccc(NC(=O)OCC#Cc2ccc([C@H]3C[C@@]4(C)C(CC[C@@]4(O)C(F)(F)C(F)(F)F)C4CCC5=CC(=O)CCC5=C43)cc2)cc1 (stereo partly drawn) [Example 59, 4-tert-butylphenylcarbamic acid 3-[4-((8S,11R,13S,14S,17S)-17-hydroxy-13-methyl-3-oxo-17-pentafluoroethyl-2,3,6,7,8,11,12,13,14,15,16,17-dodecahydro-1H-cyclopenta[a]phenanthren-1′-yl)phenyl]prop-2-ynyl ester] |
